Values of other authors as cited in patent publication US11147307B2, “Flavor capsules for smoking articles” (PHILIP MORRIS PRODUCTS S.A., priority 2015, dated 2021).

solubility in water: about 200 g/100 ml
SMILES: OC[C@@H](O)[C@@H](O[C@H]1O[C@H](CO)[C@@H](O)[C@H](O)[C@H]1O)[C@H](O)[C@@H](O)CO [maltitol]
